Reference: US12472219B2, “Encapsulated cannabinoid formulations for transdermal delivery” (Nutrae, LLC, priority 2018, dated 2025)

Assay: Encapsulation efficiency by ultracentrifugation and HPLC

CCCCCc1cc(O)c2c(c1)OC(C)(C)[C@@H]1CCC(C)=C[C@@H]21 [THC, Δ9-tetrahydrocannabinol]
encapsulation efficiency, THC compared with CBD (tested concentrations 6% and 10% (w/w), oleic acid and polysorbate 20): generally higher for THC over CBD

C=C(C)[C@@H]1CCC(C)=C[C@H]1c1c(O)cc(CCCCC)cc1O [CBD, cannabidiol]
encapsulation efficiency of CBD (% EE) (active ingredient 1% (w/w), oleic acid and polysorbate 20 preparation): 80.11%
